# Like-named read-outs stand apart in the source and are kept apart here. Where a SMILES comes first, the peptide text is derived from it.
# Legend:
# Type in all cases: cell-based
# [1] = system: Escherichia coli ATCC 25922; assay: microbe, parasite or virus in culture; settings: ATCC 25922
# Method in brief: (§1)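 Broth microdilution following CLSI M07-A/M26A, using peptides at 64–0.125 μg/mL final in MHB, with or without 10% lysed horse blood and with or without Ca/Mg cations (MH II B). Inoculum 5 x 10^5 CFU/mL, incubated 20–24 h at 35 °C; MIC is lowest concentration preventing visible growth, MBC by colony counts versus starting inoculum.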
# [2] = system: Escherichia coli clinical isolate - animal; assay: microbe, parasite or virus in culture; settings: clinical isolate - animal
# Method in brief: as §1
# [3] = system: Pseudomonas aeruginosa ATCC 27853; assay: microbe, parasite or virus in culture; settings: ATCC 27853
# Method in brief: as §1
# [4] = system: Pseudomonas aeruginosa clinical isolate - animal; assay: microbe, parasite or virus in culture; settings: clinical isolate - animal
# Method in brief: as §1
# [5] = system: Staphylococcus aureus ATCC 29213; assay: microbe, parasite or virus in culture; settings: ATCC 29213
# Method in brief: as §1
# [6] = system: Staphylococcus aureus clinical isolate - animal; assay: microbe, parasite or virus in culture; settings: clinical isolate - animal
# Method in brief: as §1
# [7] = system: Candida albicans Clinical isolate - human; assay: microbe, parasite or virus in culture; settings: Clinical isolate - human
# Procedure: (§2) Antimicrobial testing of 78 cathelicidin MPs was performed in two phases as outlined in Figure 1 . In phase I, 40 peptides (27 extant and 13 ancestral) were selected for testing based on rank (outlined above) and similarity to published marsupial cathelicidins with known antimicrobial activity ([33], [41]–[43]). These peptides were tested against nine bacteria (Staphylococcus aureus ATCC 29213 and clinical isolate, Escherichia coli ATCC 25922 and clinical isolate, Pseudomonas aeruginosa ATCC 27853 and clinical isolate, Streptococcus agalactiae ATCC 12386 and clinical isolate, Streptococcus pneumoniae ATCC 49619) and three fungi (Candida krusei ATCC 6258, Candida parapsilosis ATCC 22019, and Candida albicans clinical isolate). Details regarding these strains are available in Supplementary Table 4 . The antimicrobial activity of cathelicidins was determined as the minimum inhibitory concentration (MIC), which was the lowest concentration of cathelicidin that prevented visible bacterial or fungal growth, relative to the negative control. […] Minimum bactericidal concentration (MBC) and/or minimum fungicidal concentration (MFC) was conducted to determine microbicidal versus static action. Activity against S. aureus ATCC, E. coli ATCC, and Pseudomonas aeruginosa ATCC 27853 was examined in the presence of divalent cations to determine the impact of inhibitors.
# (§3) Antimicrobial activity was determined using a broth microdilution susceptibility assay in 96 well polypropylene plates according to Clinical Laboratory Standards Institute guidelines M07-A and M26A as described previously ([33], [42], [43]). The bacterial and fungal isolates from humans and animals used in this study are outlined in Supplementary Table 4 . Only yeasts were included in the panel of fungi as they have been used in the susceptibility testing of eutherian ([3], [81]–[83]) and other marsupial cathelicidins previously ([33], [42], [43]). Cathelicidin mature peptides were solubilized in DMSO and serially diluted in duplicate from 128-0.25μg/mL in a final volume of 100µL. For bacteria, cathelicidins were diluted in Mueller Hinton Broth (MHB) with or without 10% lysed horse blood, and with (MH II B) or without (MHB) calcium and magnesium cations. For fungi, cathelicidins were diluted in Roswell Park Memorial Institute medium (RPMI)-1640 MOPS. Ampicillin or tetracycline were included as a positive control for Gram-positive and -negative bacteria respectively, while amphotericin B was used for fungi. A media-only negative control and growth control (no cathelicidin) were also included on each plate. Bacteria were sub-cultured on Muller Hinton agar (MHA) or sheep blood agar (BA), and fungi on Sabouraud dextrose agar (SAB), 20–24 hours prior to the test. Colonies were suspended in saline, the concentration adjusted to a 0.5 McFarland standard, and then diluted in media to a concentration of 1.0 x 10^6 cells/mL. Then, 100μL was added to each well of the cathelicidin dilution plate, giving a final inoculum density of 5 x 10^5 CFU/mL and cathelicidin concentration of 64-0.125μg/mL. Colony counts were performed on MHA/BA/SAB to confirm inoculum density. All plates were incubated at 35°C for 20–24 hours, depending on the strain.
# (§4) Colonies were counted and compared to the colony count of the starting inoculum.
# [8] = system: Candida krusei ATCC 6258; assay: microbe, parasite or virus in culture; settings: ATCC 6258; for MIC: read-out: MIC C. krusei ATCC
# Procedure: as §2, §3, §4
# [9] = system: Streptococcus agalactiae ATCC 12386; assay: microbe, parasite or virus in culture; settings: ATCC 12386; read-out: MIC S. agalactiae ATCC
# Procedure: as §2, §3, §4
# [10] = system: Streptococcus agalactiae Clinical isolate - animal; assay: microbe, parasite or virus in culture; settings: clinical isolate - animal; read-out: MIC S. agalactiae
# Procedure: as §2, §3, §4
# [11] = system: Streptococcus pneumoniae ATCC 49619; assay: microbe, parasite or virus in culture; settings: ATCC 49619; read-out: MIC S. pneumoniae ATCC
# Procedure: as §2, §3, §4
# [12] = system: Staphylococcus aureus clinical isolate – animal, methicillin-resistant (MRSA); settings: clinical isolate – animal, methicillin-resistant
# Procedure: as §2, §3, §4
# [13] = system: Staphylococcus aureus clinical isolate – animal, penicillin-resistant (PRSA); settings: clinical isolate – animal, penicillin-resistant (PRSA)
# Procedure: as §2, §3, §4
# [14] = system: Candida parapsilosis ATCC 22019; assay: microbe, parasite or virus in culture; settings: ATCC 22019
# Procedure: as §2, §3, §4
# [15] = system: six bacteria (S. aureus, E. coli, P. aeruginosa; ATCC and clinical isolate)
# Procedure: as §2
# In phase II, the remaining 38 peptides (37 extant and one ancestral) were tested against six bacteria (S. aureus ATCC and clinical isolate, E. coli ATCC and clinical isolate, and P. aeruginosa ATCC and clinical isolate). […] No further testing on phase II peptides was performed. Detailed methods for all assays are provided in subsequent sections.
# as §3, §4
# [16] = read-out: MIC in the presence of cations E. coli ATCC
# [17] = read-out: MIC P. aeruginosa ATCC
MIC ([1]; read-out: MIC E. coli ATCC),"MIC [1, 16]",MIC [2],MIC in the presence of cations E. coli [2],"MIC [3, 17]",MIC ([4]; read-out: MIC P. aeruginosa),MIC S. aureus [6],MIC in the presence of cations S. aureus [6],MIC [8],MIC [9],MIC [10],MIC [11],MIC MRSA [12],MIC PRSA [13],Compound,MBC E. coli ATCC [1],MBC E. coli [2],MBC P. aeruginosa [4],MBC S. aureus ATCC [5],MBC MRSA [12],MBC PRSA [13],other results
6.5 µM,13.1 µM,3.2 µM,6.5 µM,>26.3 µM,26.3 µM,6.5 (6.5)^6.5 µM,6.5 (6.5)^6.5 µM,6.5 µM,>26.3 µM,>26.3 µM,>26.3 µM,6.5 µM,3.2 µM,CC[C@H](C)[C@H](NC(=O)[C@H](CCCNC(=N)N)NC(=O)[C@@H](N)CCCCN)C(=O)NCC(=O)N[C@@H](CC(C)C)C(=O)NCC(=O)NCC(=O)N[C@@H](CC(C)C)C(=O)N[C@H](C(=O)N[C@@H](CCCNC(=N)N)C(=O)N[C@@H](CCCNC(=N)N)C(=O)N[C@H](C(=O)N[C@@H](Cc1c[nH]c2ccccc12)C(=O)N[C@@H](CC(N)=O)C(=O)N[C@@H](CCCNC(=N)N)C(=O)N[C@H](C(=O)N[C@@H](CCCNC(=N)N)C(=O)N[C@@H](CCCNC(=N)N)C(=O)N[C@@H](CCCNC(=N)N)C(=O)NCC(=O)O)[C@@H](C)CC)[C@@H](C)CC)C(C)C [SmcrCath3] (H-KRIGLGGLVRRIWNRIRRRG-OH),6.5 µM,6.5 µM,> 26.3 µM,6.5 (6.5)^6.5 µM,6.5 µM,6.5 µM,MIC S. aureus ATCC [5]: 6.5 (6.5)^6.5 µM; MIC in the presence of cations S. aureus ATCC [5]: 6.5 (6.5)^6.5 µM; MBC S. aureus [6]: 6.5 (6.5)^6.5 µM; MFC C. albicans [7]: 26.3 µM
,,,,,,,,8.2 µM,,,,,,CC[C@H](C)[C@H](NC(=O)[C@H](CCCNC(=N)N)NC(=O)[C@@H](N)CCCCN)C(=O)NCC(=O)N[C@@H](Cc1ccccc1)C(=O)NCC(=O)N[C@@H](CC(C)C)C(=O)N[C@@H](Cc1ccccc1)C(=O)N[C@@H](Cc1c[nH]c2ccccc12)C(=O)N[C@@H](CC(=O)O)C(=O)NCC(=O)N[C@@H](CC(C)C)C(=O)N[C@@H](CCCNC(=N)N)C(=O)N[C@@H](CCCCN)C(=O)N[C@@H](CC(C)C)C(=O)NCC(=O)N[C@@H](CC(N)=O)C(=O)N[C@@H](CCCNC(=N)N)C(=O)N[C@H](C(=O)N[C@@H](CCCCN)C(=O)N[C@@H](CC(N)=O)C(=O)N[C@@H](CCCNC(=N)N)C(=O)N[C@H](C(=O)N[C@@H](CCCNC(=N)N)C(=O)N[C@@H](CC(=O)O)C(=O)N[C@@H](Cc1ccccc1)C(=O)N[C@@H](Cc1ccccc1)C(=O)N[C@@H](CO)C(=O)N[C@@H](CCCCN)C(=O)N[C@@H](Cc1ccccc1)C(=O)N[C@@H](CC(C)C)C(=O)NCC(=O)O)[C@@H](C)CC)[C@@H](C)CC [MAP9] (H-KRIGFGLFWDGLRKLGNRIKNRIRDFFSKFLG-OH),,,,,,,MIC ([7]; read-out: MIC C. albicans): >16.5 µM; MFC C. krusei ATCC [8]: 16.5 µM; MFC C. parapsilosis ATCC [14]: > 16.5 µM; MIC C. parapsilosis ATCC [14]: 16.5 µM
,,13.5 µM,27.1 µM,>27.1 µM,>27.1 µM,13.5 (13.5)^13.5 µM,13.5 (13.5)^13.5 µM,8.9 µM,>27.1 µM,>27.1 µM,>27.1 µM,13.5 µM,6.7 µM,CC[C@H](C)[C@H](NC(=O)[C@H](CCCNC(=N)N)NC(=O)[C@@H](N)CCCCN)C(=O)NCC(=O)N[C@@H](CC(C)C)C(=O)NCC(=O)NCC(=O)N[C@@H](CC(C)C)C(=O)N[C@H](C(=O)N[C@@H](CCCNC(=N)N)C(=O)N[C@@H](CCCNC(=N)N)C(=O)N[C@H](C(=O)N[C@@H](CC(C)C)C(=O)N[C@@H](CC(=O)O)C(=O)N[C@@H](CCCNC(=N)N)C(=O)N[C@H](C(=O)N[C@@H](CCCNC(=N)N)C(=O)N[C@@H](CCCNC(=N)N)C(=O)N[C@@H](CCCNC(=N)N)C(=O)NCC(=O)O)[C@@H](C)CC)[C@@H](C)CC)C(C)C [AnstCath4] (H-KRIGLGGLVRRILDRIRRRG-OH),27.1 (27.1)^27.1 µM,27.1 µM,,13.5 (13.5)^13.5 µM,27.1 µM,6.7 µM,MIC E. coli ATCC [1]: 27.1 (27.1)^27.1 µM; MIC S. aureus ATCC [5]: 13.5 (13.5)^13.5 µM; MIC in the presence of cations S. aureus ATCC [5]: 13.5 (13.5)^13.5 µM; MBC S. aureus [6]: 13.5 (13.5)^13.5 µM; MFC C. parapsilosis ATCC [14]: 64 (>64) µg/mL
1.1 µM,1.1 µM,1.1 µM,,2.2 µM,2.2 µM,18 (>18)^18 µM,18 (>18)^18 µM,,>18 µM,>18 µM,>18 µM,18 µM,4.5 µM,CC[C@H](C)[C@H](NC(=O)[C@H](CCC(N)=O)NC(=O)[C@H](Cc1ccccc1)NC(=O)[C@H](CC(N)=O)NC(=O)[C@H](CCCCN)NC(=O)[C@H](CC(C)C)NC(=O)[C@H](CCCNC(=N)N)NC(=O)[C@H](CCCCN)NC(=O)[C@H](CCCCN)NC(=O)[C@@H](NC(=O)[C@H](CO)NC(=O)[C@H](CCCCN)NC(=O)CNC(=O)[C@H](CC(C)C)NC(=O)[C@H](CCCCN)NC(=O)[C@H](CCCCN)NC(=O)[C@H](CC(C)C)NC(=O)[C@H](CCCCN)NC(=O)[C@H](CCCCN)NC(=O)[C@H](CCCNC(=N)N)NC(=O)[C@H](CC(C)C)NC(=O)CNC(=O)[C@@H](N)CCCNC(=N)N)[C@@H](C)CC)C(=O)NCC(=O)N[C@@H](Cc1ccccc1)C(=O)N[C@@H](CO)C(=O)N[C@H](C(=O)N1CCC[C@H]1C(=O)N[C@@H](Cc1ccccc1)C(=O)N[C@@H](C)C(=O)NCC(=O)O)C(C)C [PegaCath4] (H-RGLRKKLKKLGKSIKKRLKNFQIGFSVPFAG-OH),2.2 µM,1.1 µM,4.5 µM,,> 18 µM,> 18 µM,MBC P. aeruginosa ATCC [3]: 4.5 µM; MIC ([3]; read-out: MIC in the presence of cations P. aeruginosa ATCC): 2.2 µM; MIC ([4]; read-out: MIC in the presence of cations P. aeruginosa): 2.2 µM; MIC ([5]; read-out: MIC S. aureus ATCC): 9 µM; MIC ([5]; read-out: MIC in the presence of cations S. aureus ATCC): 18 µM; MIC against at least one strain [15]: 4 µg/mL
